Measured values reported in patent US9266883B2, “Ring-fused bicyclic pyridyl derivatives as FGFR4 inhibitors” (Novartis AG, priority 2013, dated 2016).
Counter-ions that a name gives are not always drawn.

Experiments:
[1] = target: FGFR2 (406-821) (Homo sapiens (Human), UniProt P21802); assay: In vitro biochemical assay for FGFR2
[2] = target: FGFR3 (411-806) (Homo sapiens (Human), UniProt P22607); assay: In vitro biochemical assay for FGFR3
[3] = test system: HuH-7 hepatocellular carcinoma cells; assay: Methylene Blue Staining Proliferation Assay (MBS); conditions: Homo sapiens, Huh-7, 72 h, read-out: HUH7 proliferation (nM) MBS
[4] = test system: HuH-7 hepatocellular carcinoma cells; assay: CellTiter Glo (CTG) Assay; conditions: Homo sapiens, Huh-7, 72 h, read-out: HUH7 proliferation (nM) CTG
[5] = target: FGFR1 (407-822) (Homo sapiens (Human), UniProt P11362); assay: In vitro biochemical assay for FGFR1
[6] = target: FGFR4 (GST-FGFR4(388-802)) (Homo sapiens (Human), UniProt P22455); assay: In-vitro biochemical kinase assay for FGFR4 (Caliper microfluidic mobility shift); conditions: read-out: Biochemical FGFR4 IC50
[7] = target: Tel-FGFR4 (Homo sapiens (Human), UniProt P22455); assay: In vitro cellular kinase assay for FGFR4 (BaF3-Tel-FGFR4 cells, MSD capture ELISA of tyrosine phosphorylation); format: cell-based; conditions: BaF3-Tel-FGFR4 cells, 1 hour incubation; read-out: Cellular BaF3 FGFR4 IC50
Tel-FGFR4, sequence (P22455 other isoform, or with tags, fused parts or gaps): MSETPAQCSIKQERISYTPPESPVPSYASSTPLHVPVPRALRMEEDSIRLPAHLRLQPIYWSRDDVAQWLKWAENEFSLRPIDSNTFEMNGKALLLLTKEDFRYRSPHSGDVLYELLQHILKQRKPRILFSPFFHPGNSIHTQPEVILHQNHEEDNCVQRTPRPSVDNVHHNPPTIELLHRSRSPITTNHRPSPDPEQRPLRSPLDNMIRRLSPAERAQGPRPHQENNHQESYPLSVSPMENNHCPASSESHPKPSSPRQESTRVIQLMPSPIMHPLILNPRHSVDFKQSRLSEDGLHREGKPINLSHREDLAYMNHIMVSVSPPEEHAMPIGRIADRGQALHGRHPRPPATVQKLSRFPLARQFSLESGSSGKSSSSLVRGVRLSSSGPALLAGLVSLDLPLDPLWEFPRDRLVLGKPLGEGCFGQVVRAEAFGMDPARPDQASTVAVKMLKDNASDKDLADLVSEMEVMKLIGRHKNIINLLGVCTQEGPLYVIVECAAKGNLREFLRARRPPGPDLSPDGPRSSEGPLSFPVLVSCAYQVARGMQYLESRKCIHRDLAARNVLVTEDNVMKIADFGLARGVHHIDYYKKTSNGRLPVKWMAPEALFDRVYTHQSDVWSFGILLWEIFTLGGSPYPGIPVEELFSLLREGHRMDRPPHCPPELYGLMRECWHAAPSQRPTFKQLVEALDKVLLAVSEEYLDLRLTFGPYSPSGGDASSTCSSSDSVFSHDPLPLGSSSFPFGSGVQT

FGFR3 (411-806), sequence (P22607 411-806): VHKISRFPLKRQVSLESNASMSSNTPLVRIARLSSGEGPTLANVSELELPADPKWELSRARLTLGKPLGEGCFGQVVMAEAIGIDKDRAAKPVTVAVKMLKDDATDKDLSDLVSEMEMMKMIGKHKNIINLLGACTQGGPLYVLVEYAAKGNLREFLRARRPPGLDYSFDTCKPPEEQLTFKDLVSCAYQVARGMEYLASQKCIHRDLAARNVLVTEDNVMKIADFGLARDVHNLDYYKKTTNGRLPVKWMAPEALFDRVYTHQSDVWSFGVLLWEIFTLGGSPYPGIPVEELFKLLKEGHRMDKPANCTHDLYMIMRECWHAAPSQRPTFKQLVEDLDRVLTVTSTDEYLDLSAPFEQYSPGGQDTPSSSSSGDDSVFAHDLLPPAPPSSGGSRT
FGFR2 (406-821), sequence (P21802 406-821): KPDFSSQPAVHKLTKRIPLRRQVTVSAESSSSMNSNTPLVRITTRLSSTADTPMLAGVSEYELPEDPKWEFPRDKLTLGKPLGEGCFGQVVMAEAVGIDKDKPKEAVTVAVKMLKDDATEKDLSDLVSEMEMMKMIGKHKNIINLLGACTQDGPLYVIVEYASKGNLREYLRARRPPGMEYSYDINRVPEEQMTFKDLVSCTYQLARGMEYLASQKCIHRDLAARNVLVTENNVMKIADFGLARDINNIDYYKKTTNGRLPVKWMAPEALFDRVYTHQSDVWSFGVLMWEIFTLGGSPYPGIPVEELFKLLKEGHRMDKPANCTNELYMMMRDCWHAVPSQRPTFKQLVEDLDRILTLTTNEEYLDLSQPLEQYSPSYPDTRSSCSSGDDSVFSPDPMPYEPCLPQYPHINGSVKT
FGFR1 (407-822), sequence (P11362 407-822): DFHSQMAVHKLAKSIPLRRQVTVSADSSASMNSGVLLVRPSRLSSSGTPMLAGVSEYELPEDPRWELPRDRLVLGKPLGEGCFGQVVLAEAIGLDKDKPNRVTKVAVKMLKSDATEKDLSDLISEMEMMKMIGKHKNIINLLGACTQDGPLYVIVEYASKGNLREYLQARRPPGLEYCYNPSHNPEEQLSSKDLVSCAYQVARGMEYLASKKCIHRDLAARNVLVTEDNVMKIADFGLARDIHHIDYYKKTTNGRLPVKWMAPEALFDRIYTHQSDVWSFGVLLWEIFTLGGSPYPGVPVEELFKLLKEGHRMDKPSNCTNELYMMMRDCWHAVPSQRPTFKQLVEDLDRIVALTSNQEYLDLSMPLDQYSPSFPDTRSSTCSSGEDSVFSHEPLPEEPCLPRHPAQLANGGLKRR
FGFR4 (GST-FGFR4(388-802)), sequence (P22455 388-802): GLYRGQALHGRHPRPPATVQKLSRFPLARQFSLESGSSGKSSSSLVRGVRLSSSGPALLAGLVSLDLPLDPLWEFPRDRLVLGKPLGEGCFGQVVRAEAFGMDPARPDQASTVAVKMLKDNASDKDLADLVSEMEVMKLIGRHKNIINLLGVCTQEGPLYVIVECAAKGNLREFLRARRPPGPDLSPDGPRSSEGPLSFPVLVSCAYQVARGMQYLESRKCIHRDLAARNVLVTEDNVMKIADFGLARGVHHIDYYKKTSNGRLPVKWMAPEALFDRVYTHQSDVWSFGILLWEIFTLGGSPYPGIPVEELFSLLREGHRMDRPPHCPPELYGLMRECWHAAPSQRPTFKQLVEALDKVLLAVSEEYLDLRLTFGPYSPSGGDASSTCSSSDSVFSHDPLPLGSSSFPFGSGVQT

| Compound | IC50 [1] | IC50 [2] | IC50 [3] | IC50 [4] | IC50 [5] | IC50 [6] | IC50 [7] |
| --- | --- | --- | --- | --- | --- | --- | --- |
| COCCNc1cc(NC(=O)N2CCCc3cc(CN(CCN(C)C)C(C)=O)c(C=O)nc32)ncc1C#N [Example 143, N-(5-cyano-4-((2-methoxyethyl)amino)pyridin-2-yl)-6-((N-(2-(dimethylamino)ethyl)acetamido)methyl)-7-formyl-3,4-dihydro-1,8-naphthyridine-1(2H)-carboxamide] | > 10000 nM | > 10000 nM | 104 nM | 171 nM | > 10000 nM | 2 nM | 16.7 nM |
| COCCNc1cc(NC(=O)N2CCCc3cc(-c4cnn(C)c4)c(C=O)nc32)ncc1C#N [Example 251, N-(5-cyano-4-((2-methoxyethyl)amino)pyridin-2-yl)-7-formyl-6-(1-methyl-1H-pyrazol-4-yl)-3,4-dihydro-1,8-naphthyridine-1(2H)-carboxamide] | – | – | 264 nM | 1340 nM | – | – | 12.9 nM |
| COCCNc1cc(NC(=O)N2CCCc3cc(CN4CCN(C)CC4=O)c(C=O)nc32)ncc1C#N [Example 83, N-(5-cyano-4-((2-methoxyethyl)amino)pyridin-2-yl)-7-formyl-6-((4-methyl-2-oxopiperazin-1-yl)methyl)-3,4-dihydro-1,8-naphthyridine-1(2H)-carboxamide] | – | – | 12 nM | 60.9 nM | – | – | – |
| COC[C@@H](C)Oc1cc(NC(=O)N2CCCc3cc(CN4CCN(C)CC4=O)c(C=O)nc32)ncc1C#N [Example 205, (R)-N-(5-cyano-4-((1-methoxypropan-2-yl)oxy)pyridin-2-yl)-7-formyl-6-((4-methyl-2-oxopiperazin-1-yl)methyl)-3,4-dihydro-1,8-naphthyridine-1(2H)-carboxamide] | > 10000 nM | > 10000 nM | 14 nM | – | > 10000 nM | – | – |
| CN1CCOC(CNc2cc(NC(=O)N3CCCc4cc(C(F)F)c(C=O)nc43)ncc2C#N)C1 (racemic) [Example 161, N-(5-cyano-4-(((4-methylmorpholin-2-yl)methyl)amino)pyridin-2-yl)-6-(difluoromethyl)-7-formyl-3,4-dihydro-1,8-naphthyridine-1(2H)-carboxamide] | > 10000 nM | > 10000 nM | 126 nM | 200 nM | > 10000 nM | 2.5 nM | 17.3 nM |
| CC(=O)N1CCN(Cc2cc3c(nc2C=O)N(C(=O)Nc2cc(OC(C)C)c(C#N)cn2)CCC3)CC1 [Example 134, 6-((4-acetylpiperazin-1-yl)methyl)-N-(5-cyano-4-isopropoxypyridin-2-yl)-7-formyl-3,4-dihydro-1,8-naphthyridine-1(2H)-carboxamide] | > 10000 nM | > 10000 nM | – | 450 nM | > 10000 nM | 1.9 nM | 20.5 nM |
| CC(C)n1cnc2cnc(NC(=O)N3CCCc4cc(CN5CCN(C)CC5=O)c(C=O)nc43)cc21 [Example 216, 7-formyl-N-(1-isopropyl-1H-imidazo[4,5-c]pyridin-6-yl)-6-((4-methyl-2-oxopiperazin-1-yl)methyl)-3,4-dihydro-1,8-naphthyridine-1(2H)-carboxamide] | > 10000 nM | > 10000 nM | > 1000 nM | > 3000 nM | > 10000 nM | – | – |
| CC(C)Oc1cc(NC(=O)N2CCCc3cc(CN(C)C(=O)CO)c(C=O)nc32)ncc1C#N [Example 141, N-(5-cyano-4-isopropoxypyridin-2-yl)-7-formyl-6-((2-hydroxy-N-methylacetamido)methyl)-3,4-dihydro-1,8-naphthyridine-1(2H)-carboxamide] | > 10000 nM | > 10000 nM | 43 nM | 36 nM | > 10000 nM | – | 3.9 nM |
| COC[C@@H](C)Oc1cc(NC(=O)N2CCCc3cc(CN4C(=O)OC[C@@H]4C)c(C=O)nc32)ncc1C#N [Example 115, N-(5-cyano-4-(((R)-1-methoxypropan-2-yl)oxy)pyridin-2-yl)-7-formyl-6-(((S)-4-methyl-2-oxooxazolidin-3-yl)methyl)-3,4-dihydro-1,8-naphthyridine-1(2H)-carboxamide] | – | – | 29 nM | 17.5 nM | – | 0.2 nM | 3.9 nM |
| O=Cc1ccc2c(n1)N(C(=O)Nc1ccc(Cl)cn1)CCC2 [Example 4, N-(5-chloropyridin-2-yl)-7-formyl-3,4-dihydro-1,8-naphthyridine-1(2H)-carboxamide] | – | – | > 3000 nM | – | – | – | – |
| CN1CCC(COc2cc(NC(=O)N3CCCc4cc(CO)c(C=O)nc43)ncc2C#N)CC1 [Example 78, N-(5-cyano-4-((1-methylpiperidin-4-yl)methoxy)pyridin-2-yl)-7-formyl-6-(hydroxymethyl)-3,4-dihydro-1,8-naphthyridine-1(2H)-carboxamide] | > 10000 nM | > 10000 nM | 279 nM | – | > 10000 nM | 20 nM | 17 nM |
| CC(C)Oc1cc(NC(=O)N2CCCc3cc(C4CCNCC4)c(C=O)nc32)ncc1C#N [Example 265, N-(5-cyano-4-isopropoxypyridin-2-yl)-7-formyl-6-(piperidin-4-yl)-3,4-dihydro-1,8-naphthyridine-1(2H)-carboxamide] | > 10000 nM | > 10000 nM | – | 404 nM | > 10000 nM | 3.5 nM | 87 nM |
| N#Cc1cnc(NC(=O)N2CCCc3cc(CO)c(C=O)nc32)cc1OC1CN2CCC1CC2 (racemic) [Example 82, N-(5-cyano-4-(quinuclidin-3-yloxy)pyridin-2-yl)-7-formyl-6-(hydroxymethyl)-3,4-dihydro-1,8-naphthyridine-1(2H)-carboxamide] | > 10000 nM | > 10000 nM | 2010 nM | – | > 10000 nM | 56 nM | 83.5 nM |
| COCCNc1cc(NC(=O)N2CCCc3cc(CN4CCNCC4=O)c(C=O)nc32)ncc1C#N [Example 110, N-(5-cyano-4-((2-methoxyethyl)amino)pyridin-2-yl)-7-formyl-6-((2-oxopiperazin-1-yl)methyl)-3,4-dihydro-1,8-naphthyridine-1(2H)-carboxamide hydrochloride] | > 10000 nM | > 10000 nM | 46 nM | 59.7 nM | > 10000 nM | 1.4 nM | 8.6 nM |
| COCCNc1cc(NC(=O)N2CCCc3cc(CO)c(C=O)nc32)ncc1C(F)(F)F [Example 84, 7-formyl-6-(hydroxymethyl)-N-(4-((2-methoxyethyl)amino)-5-(trifluoromethyl)pyridin-2-yl)-3,4-dihydro-1,8-naphthyridine-1(2H)-carboxamide] | > 10000 nM | > 10000 nM | 929 nM | 944 nM | > 10000 nM | 21 nM | 33.5 nM |
| COCCNc1cc(NC(=O)N2CCCc3cc(CN4CCSCC4=O)c(C=O)nc32)ncc1C#N [Example 149, N-(5-cyano-4-((2-methoxyethyl)amino)pyridin-2-yl)-7-formyl-6-((3-oxothiomorpholino)methyl)-3,4-dihydro-1,8-naphthyridine-1(2H)-carboxamide] | > 10000 nM | > 10000 nM | – | 77.5 nM | > 10000 nM | 0.1 nM | 5.3 nM |
